Measured values published in patent publication US11116735B2, “Use of substituted benzylideneguanidine derivatives as synergists for polymyxin antibiotics” (GUANGZHOU INSIGHTER BIOTECHNOLOGY CO., LTD., priority 2015, dated 2021).

Experiments:
E. coli 3B-24 = assay: MIC by doubling dilution, colistin sulfate-susceptible E. coli 3B-24; type: cell-based, Escherichia coli; conditions: for In vitro minimum inhibitory concentration (MIC) of the substance alone: E. coli 3B-24, colistin sulfate-susceptible, derivatives as hydrochlorides; for In vitro MIC of colistin sulfate in the presence of the substituted benzylideneguanidine derivative: E. coli 3B-24, culture comprised 20.0 ppm of the derivative (hydrochloride), colistin sulfate serially diluted
E. coli 2S-19 = assay: MIC by doubling dilution, colistin sulfate-susceptible E. coli 2S-19; type: cell-based, Escherichia coli; conditions: for In vitro minimum inhibitory concentration (MIC) of the substance alone: E. coli 2S-19, colistin sulfate-susceptible, derivatives as hydrochlorides; for In vitro MIC of colistin sulfate in the presence of the substituted benzylideneguanidine derivative: E. coli 2S-19, culture comprised 20.0 ppm of the derivative (hydrochloride), colistin sulfate serially diluted
E. coli 2G-7 = assay: MIC by doubling dilution, colistin sulfate-resistant E. coli 2G-7; conditions: for In vitro minimum inhibitory concentration (MIC) of the substance alone: E. coli 2G-7, colistin sulfate-resistant, derivatives as hydrochlorides; for In vitro MIC of colistin sulfate in the presence of the substituted benzylideneguanidine derivative: E. coli 2G-7, resistant, culture comprised 20.0 ppm of the derivative (hydrochloride)
E. coli 4D-6 = assay: MIC by doubling dilution, colistin sulfate-resistant E. coli 4D-6; conditions: for In vitro minimum inhibitory concentration (MIC) of the substance alone: E. coli 4D-6, colistin sulfate-resistant, derivatives as hydrochlorides; for In vitro MIC of colistin sulfate in the presence of the substituted benzylideneguanidine derivative: E. coli 4D-6, resistant, culture comprised 20.0 ppm of the derivative (hydrochloride)
E. coli 3Y-9 = assay: MIC by doubling dilution, colistin sulfate-susceptible E. coli 3Y-9; type: cell-based, Escherichia coli; conditions: for In vitro minimum inhibitory concentration (MIC) of the substance alone: E. coli 3Y-9, colistin sulfate-susceptible, derivatives as hydrochlorides; for In vitro MIC of colistin sulfate in the presence of the substituted benzylideneguanidine derivative: E. coli 3Y-9, culture comprised 20.0 ppm of the derivative (hydrochloride), colistin sulfate serially diluted
E. coli 3H-4 = assay: MIC by doubling dilution, colistin sulfate-resistant E. coli 3H-4; conditions: for In vitro minimum inhibitory concentration (MIC) of the substance alone: E. coli 3H-4, colistin sulfate-resistant, derivatives as hydrochlorides; for In vitro MIC of colistin sulfate in the presence of the substituted benzylideneguanidine derivative: E. coli 3H-4, resistant, culture comprised 20.0 ppm of the derivative (hydrochloride)
E. coli 5F-1 = assay: MIC by doubling dilution, colistin sulfate-resistant E. coli 5F-1; conditions: for In vitro minimum inhibitory concentration (MIC) of the substance alone: E. coli 5F-1, colistin sulfate-resistant, derivatives as hydrochlorides; for In vitro MIC of colistin sulfate in the presence of the substituted benzylideneguanidine derivative: E. coli 5F-1, resistant, culture comprised 20.0 ppm of the derivative (hydrochloride)
E. coli 5W-7 = assay: MIC by doubling dilution, colistin sulfate-susceptible E. coli 5W-7; type: cell-based, Escherichia coli; conditions: for In vitro minimum inhibitory concentration (MIC) of the substance alone: E. coli 5W-7, colistin sulfate-susceptible, derivatives as hydrochlorides; for In vitro MIC of colistin sulfate in the presence of the substituted benzylideneguanidine derivative: E. coli 5W-7, culture comprised 20.0 ppm of the derivative (hydrochloride), colistin sulfate serially diluted

| In vitro minimum inhibitory concentration (MIC) of the substance alone (E. coli 3B-24) [ppm] | In vitro MIC of colistin sulfate in the presence of the substituted benzylideneguanidine derivative (E. coli 3B-24) [ppm] | In vitro minimum inhibitory concentration (MIC) of the substance alone (E. coli 2S-19) [ppm] | In vitro MIC of colistin sulfate in the presence of the substituted benzylideneguanidine derivative (E. coli 2S-19) [ppm] | In vitro minimum inhibitory concentration (MIC) of the substance alone (E. coli 2G-7) [ppm] | In vitro MIC of colistin sulfate in the presence of the substituted benzylideneguanidine derivative (E. coli 2G-7) [ppm] | In vitro minimum inhibitory concentration (MIC) of the substance alone (E. coli 4D-6) [ppm] | In vitro MIC of colistin sulfate in the presence of the substituted benzylideneguanidine derivative (E. coli 4D-6) [ppm] | In vitro minimum inhibitory concentration (MIC) of the substance alone (E. coli 3Y-9) [ppm] | In vitro MIC of colistin sulfate in the presence of the substituted benzylideneguanidine derivative (E. coli 3Y-9) [ppm] | In vitro minimum inhibitory concentration (MIC) of the substance alone (E. coli 3H-4) [ppm] | In vitro MIC of colistin sulfate in the presence of the substituted benzylideneguanidine derivative (E. coli 3H-4) [ppm] | In vitro minimum inhibitory concentration (MIC) of the substance alone (E. coli 5F-1) [ppm] | In vitro MIC of colistin sulfate in the presence of the substituted benzylideneguanidine derivative (E. coli 5F-1) [ppm] | In vitro minimum inhibitory concentration (MIC) of the substance alone (E. coli 5W-7) [ppm] | In vitro MIC of colistin sulfate in the presence of the substituted benzylideneguanidine derivative (E. coli 5W-7) [ppm] | SMILES |
| --- | --- | --- | --- | --- | --- | --- | --- | --- | --- | --- | --- | --- | --- | --- | --- | --- |
| >800 | 2.00 | >800 | 2.00 | >800 | 2.0 | >800 | 8.0 | >800 | 2.00 | >800 | 2.0 | >800 | 4.0 | >800 | 1.00 | CCOc1ccc(C=NN=C(N)NN=Cc2ccc(OCC)cc2)cc1 [Compound 2] |
| >800 | 1.00 | >800 | 1.00 | >800 | 4 | >800 | 16 | >800 | 1.00 | >800 | 4 | >800 | 8 | >800 | 0.50 | CCSc1ccc(C=NNC(=N)NN=Cc2ccc(SCC)cc2)cc1 [Compound 9] |
| >800 | 1.00 | >800 | 1.00 | >800 | 4 | >800 | 16 | >800 | 1.00 | >800 | 4 | >800 | 8 | >800 | 0.50 | Cc1ccc(C=NN=C(N)NN=Cc2ccc(C)cc2)cc1 [Compound 10] |
| >800 | 2.00 | >800 | 1.00 | >800 | 16 | >800 | 64 | >800 | 1.00 | >800 | 16 | >800 | 16 | >800 | 0.50 | CC(C)c1ccc(C=NNC(=N)NN=Cc2ccc(C(C)C)cc2)cc1 [Compound 11] |
| >800 | 1.00 | >800 | 1.00 | >800 | 4 | >800 | 16 | >800 | 1.00 | >800 | 4 | >800 | 8 | >800 | 0.50 | COC(=O)c1ccc(C=NN=C(N)NN=Cc2ccc(C(=O)OC)cc2)cc1 [Compound 12] |
| >800 | 0.50 | >800 | 1.00 | >800 | 4 | >800 | 16 | >800 | 1.00 | >800 | 4 | >800 | 8 | >800 | 0.50 | N#Cc1ccc(C=NN=C(N)NN=Cc2ccc(C#N)cc2)cc1 [Compound 13] |
| >800 | 1.00 | >800 | 1.00 | >800 | 16 | >800 | 32 | >800 | 1.00 | >800 | 8 | >800 | 32 | >800 | 0.50 | NC(=NN=Cc1ccc(C(F)(F)F)cc1)NN=Cc1ccc(C(F)(F)F)cc1 [Compound 14] |
